Read-outs that look alike come from different tables or passages of the source.
Legend:
[1] = system: MC3T3-E1 subclone 4 cells; type: cell-based, murine
Method: Briefly, MC3T3-E1 subclone 4 cells have been grown and propagated in α-MEM supplemented with 5% fetal bovine serum (FBS), 5% bovine calf serum (BCS), 100 U/mL penicillin, and 100 μg/mL streptomycin in a humidified atmosphere enriched with 5% CO2 at 37° C. […] This day was considered as day 1. The differentiation medium was replenished every two days. […] Cultures were rinsed at least six times with milliQ water, fixed in absolute ethanol, scrapped off the culture dish and transferred onto BaF2 windows where they were air-dried. Integrity of the collagen extracellular matrix was verified by comparing the obtained Fourier transform infrared spectrum with those of commercial collagen. Spectral analysis was performed using a Bruker Vertex 70 spectrometer (Bruker optics, Ettlingen, Germany) interfaced with a Bruker Hyperion 3000 infrared microscope equipped with a standard single element Mercury Cadmium Telluride (MCT) detector. Calibration of the infrared spectrometer is done once a week with a polystyrene film standard (Bruker optics). Infrared spectra were recorded at a resolution of 4 cm^-1, with an average of 32 scans in transmission mode. Background spectral images were collected under identical conditions from the same BaF2 windows at the beginning and end of each experiment to ensure instrument stability. At least 5 spectra were acquired for each condition and analyzed with a lab-made routine script (version 2.0) in Matlab R2016b (The Mathworks, Natick, MA). […] For GIP and GLP-2 dataset, the inventors used the collagen maturity data previously acquired and analyzed. First of all, collagen maturity obtained in control cultures, i.e. in the absence of double GIP/GLP-2 analogues, were averaged and subtracted to the all dataset. […] For each concentration of peptide, the mean, SD and number of events were computed. […] The GraphPad Prism analysis consisted in: […] Statistical Analysis […] Data are represented as mean±SD.

human GIPr = molecular target: T1, human GIPr (Homo sapiens, UniProt P48546); assay: Cyclic AMP assay (FRET, H74 probe), HEK-293 transfected with human GIPr; type: cell-based; details: HEK 293 transfected only with human GIPr, 10^-9 M, 30 min (FIG. 16)
T1 construct: host or cells: HEK-293
T1 sequence (P48546 22-466): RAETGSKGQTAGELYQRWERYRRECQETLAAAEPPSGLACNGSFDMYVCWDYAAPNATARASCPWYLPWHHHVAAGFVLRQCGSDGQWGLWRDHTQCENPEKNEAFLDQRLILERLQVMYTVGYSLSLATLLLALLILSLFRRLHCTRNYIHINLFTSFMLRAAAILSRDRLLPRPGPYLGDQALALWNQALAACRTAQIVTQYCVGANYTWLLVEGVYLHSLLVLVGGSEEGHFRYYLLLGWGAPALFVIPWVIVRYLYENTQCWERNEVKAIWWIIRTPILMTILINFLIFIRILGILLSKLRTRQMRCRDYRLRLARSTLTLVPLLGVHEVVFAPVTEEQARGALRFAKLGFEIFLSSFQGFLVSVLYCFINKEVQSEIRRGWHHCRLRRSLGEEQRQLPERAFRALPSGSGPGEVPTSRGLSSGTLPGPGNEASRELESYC
Method: (§1) Human HEK-293 cells were plated at a density of 2×10^5 cells/cm^2 in 4 well microslides (ibidi GmbH, Martinsried, Germany). […] Jalink (Netherland Cancer Institute, Amsterdam, Netherland). […] The image acquisition was performed with a 63 X, 1.4 N.A. oil immersion objective and a Hybrid® detector (Leica) and images were collected after 30 minutes. Donor excitation was made with a 458 nm Ar laser, donor emission was collected between 460-505 nm and acceptor emission between 520-600 nm by setting the SP8 spectrometer accordingly. FRET was expressed as the ratio between donor and acceptor signals.

Murine Raw 264.7 cells = type: cell-based; details: for IC50 computed from curve fitting of osteoclastogenesis vs. peptide concentration: Raw 264.7, RANKL 10 ng/ml, 110 h, * values determined from previous experiments
Method: Murine Raw 264.7 cells were grown and expanded in propagation medium containing Dulbecco's modified Eagle medium (DMEM-Gibco) supplemented with 10% fetal bovine serum (FBS-Lonza), 100 U/mL penicillin and 100 μg/mL streptomycin (Gibco) in a humidified atmosphere enriched with 5% CO2 at 37° C. The first passage after thawing Raw 264.7 cells was considered as passage 1. Cells were used up to passage 8. […] Cultures were rinsed three times in distilled water and the residual activity was inhibited by 4% NaF (Sigma-Aldrich) for 30 min. Cells were then rinsed in distilled water and allowed to dry. TRAcP positive cells, with more than three nuclei, were identified as osteoclasts. The number of newly generated osteoclasts was assessed using light microscopic examination by a histologist that was blinded to the treatment intervention. […] For each concentration of peptide, the mean, SD and number of events were computed.

[2] = system: human GIPr and the human GLP-2r; assay: Cyclic AMP assay (FRET, H74 probe), HEK-293 co-transfected with human GIPr and human GLP-2r; type: cell-based; details: 10^-9 M
Method: as §1

MC3T3-E1 cells = type: cell-based, murine
Method: Increased plasma membrane permeability that occurs during cell death can be visualised using trypan blue, a dye that is excluded from living cells and is incorporated into the cells when they are undergoing death (Bellido and Plotkin (2008) Methods Mol. Biol. 455:51-75).
After 24 h, the cell culture supernatant containing the floating cells was collected and put in previously labelled eppendorf tubes. Each well was washed in PBS before trypsin was added to detach adherent cells. The mixture containing detached adherent cells was collected and pooled in the eppendorf containing the cell culture supernatant. Cells were spun at 1,500 rotation per minute (rpm) for 10 minutes, the supernatant was removed carefully and cells were incubated with trypan blue 0.04% and transferred into a haemocytometer. Living (clear) and dead (blue) cells were counted under light microscope examination and the percentage of dead cells was determined for each condition as follow: % of dead cells=100×(Number of dead cells)/(Number of dead cells+Number of living cells)

CC[C@H](C)[C@H](NC(=O)[C@H](CO)NC(=O)[C@H](CCSC)NC(=O)[C@H](CC(=O)O)NC(=O)[C@H](CO)NC(=O)CNC(=O)[C@H](Cc1ccccc1)NC(=O)[C@H](CO)NC(=O)CNC(=O)[C@H](CCC(=O)O)NC(=O)CNC(=O)[C@@H](N)Cc1c[nH]cn1)C(=O)N[C@@H](C)C(=O)N[C@@H](CC(C)C)C(=O)N[C@@H](CC(=O)O)C(=O)N[C@@H](CCCCN)C(=O)N[C@@H](CC(C)C)C(=O)N[C@@H](C)C(=O)N[C@@H](C)C(=O)N[C@@H](CCCNC(=N)N)C(=O)N[C@@H](CC(=O)O)C(=O)N[C@@H](Cc1ccccc1)C(=O)N[C@H](C(=O)N[C@@H](CC(N)=O)C(=O)N[C@@H](Cc1c[nH]c2ccccc12)C(=O)N[C@@H](CC(C)C)C(=O)N[C@@H](CC(C)C)C(=O)N[C@@H](CCC(N)=O)C(=O)N[C@H](C(=O)N[C@@H](CCCCN)C(=O)N[C@H](C(=O)N[C@H](C(=O)N[C@@H](CC(=O)O)C(=O)O)[C@@H](C)O)[C@@H](C)CC)[C@@H](C)O)C(C)C [GL-0001] was tested, and the “Emax for dose-effect curves on collagen maturity” value ([1]; MC3T3-E1, day 14) was 207.0%, the EC50 ([1]; MC3T3-E1, day 14, mean ± SD of 5 individual experiments, read-out: EC50 for dose-effect curves on collagen maturity) was 0.0262 ± 0.0171 nM and the “intracellular levels of cAMP” value (human GIPr) was “increased intracellular levels of cAMP”. For the same molecule, the IC50 computed from curve fitting of osteoclastogenesis vs. peptide concentration (Murine Raw 264.7 cells) was 0.0142 nM, the EC50 (Murine Raw 264.7 cells; Raw 264.7, * data obtained in previous experiments, read-out: EC50 of inhibitory effect on osteoclastogenesis) was 0.0142 nM and the “intracellular levels of cAMP” value ([2]; HEK 293 co-transfected with human GIPr and human GLP-2r, 30 min (FIG. 18)) was “increased intracellular levels of cAMP”. For the same molecule, the “magnitude of cAMP rise versus native peptides” value ([2]; co-transfected HEK 293 cells) was “greater with GL-0001 than with each native peptide” and the osteoblast cell death (MC3T3-E1 cells) was “does not induce cell death”.
In the case of CC[C@H](C)[C@H](NC(=O)[C@H](CO)NC(=O)[C@H](Cc1ccccc1)NC(=O)[C@H](CC(=O)O)NC(=O)[C@H](CO)NC(=O)CNC(=O)[C@H](Cc1ccccc1)NC(=O)[C@H](CO)NC(=O)CNC(=O)[C@H](CCC(=O)O)NC(=O)CNC(=O)[C@@H](N)Cc1c[nH]cn1)C(=O)N[C@@H](C)C(=O)N[C@@H](CC(C)C)C(=O)N[C@@H](CC(=O)O)C(=O)N[C@@H](CCCCN)C(=O)N[C@@H](CC(C)C)C(=O)N[C@@H](C)C(=O)N[C@@H](C)C(=O)N[C@@H](CCCNC(=N)N)C(=O)N[C@@H](CC(=O)O)C(=O)N[C@@H](Cc1ccccc1)C(=O)N[C@H](C(=O)N[C@@H](CC(N)=O)C(=O)N[C@@H](Cc1c[nH]c2ccccc12)C(=O)N[C@@H](CC(C)C)C(=O)N[C@@H](CC(C)C)C(=O)N[C@@H](CCC(N)=O)C(=O)N[C@H](C(=O)N[C@@H](CCCCN)C(N)=O)[C@@H](C)O)C(C)C [GL-0007], the EC50 [1] is reported as 0.0259 ± 0.0145 nM, the “Emax for dose-effect curves on collagen maturity” value ([1]; MC3T3-E1, day 14) is reported as 232.3% and the EC50 (Murine Raw 264.7 cells) is reported as 0.0062 nM. The IC50 computed from curve fitting of osteoclastogenesis vs. peptide concentration (Murine Raw 264.7 cells) was 0.0062 nM.
